Bridge positions count the residues as written; N and C are the ends. Peptide text beside a SMILES is read from it.
Legend:
[1] = system: PC-3; assay: Cytotoxicty against human PC3 cells after 24 hrs by MTT assay; format: functional, cell-based; conditions: PC-3, 24 h
[2] = system: HeLa; assay: Cytotoxicty against human HeLa cells after 24 hrs by MTT assay; format: functional, cell-based
[3] = system: HUVEC; assay: Cytotoxicty against HUVEC after 24 hrs by MTT assay; format: cell-based; conditions: Homo sapiens
[4] = system: Erythrocyte; assay: Hemolytic activity in human red blood cells after 1 hr; format: ADME, cell-based

SMILES	IC50 [1] [nM]	IC50 [2] [nM]	IC50 [3] [nM]	IC50 [4] [nM]
CC[C@H](C)[C@@H]1NC(=O)[C@@H]2CSSC[C@@H]3NC(=O)[C@H](C(C)C)NC(=O)[C@H](CCCCN)NC(=O)[C@H](CO)NC(=O)[C@H](CCCCN)NC(=O)[C@@H]4CSSC[C@H](NC(=O)[C@H](CO)NC(=O)[C@H](CCC(=O)O)NC(=O)CNC(=O)[C@H](CSSC[C@H](NC(=O)CNC(=O)[C@@H](CC(C)C)NC(=O)[C@H](CC(C)C)NC(=O)[C@H]([C@@H](C)O)NC(=O)[C@H](CO)NC1=O)C(=O)N[C@@H](CO)C(=O)N4)NC(=O)[C@@H]1CCCN1C(=O)[C@H]([C@@H](C)CC)NC(=O)[C@H](C(C)C)NC(=O)CNC(=O)[C@H](CC(N)=O)NC(=O)[C@H](CCCNC(=N)N)NC(=O)[C@H](Cc1ccc(O)cc1)NC3=O)C(=O)N[C@@H](C(C)C)C(=O)N[C@@H](Cc1ccccc1)C(=O)N[C@@H]([C@@H](C)CC)C(=O)N1CCC[C@H]1C(=O)N2	1100	1800	1200	–
CC[C@H](C)[C@@H]1NC(=O)[C@@H]2CSSC[C@@H]3NC(=O)[C@H](C(C)C)NC(=O)[C@H](CCCCN)NC(=O)[C@H](CO)NC(=O)[C@H](CCCCN)NC(=O)[C@@H]4CSSC[C@H](NC(=O)[C@H](CO)NC(=O)[C@H](CCC(=O)O)NC(=O)CNC(=O)[C@H](CSSC[C@H](NC(=O)CNC(=O)[C@H](CC(C)C)NC(=O)[C@H](C)NC(=O)[C@H](C)NC(=O)[C@H]([C@@H](C)O)NC1=O)C(=O)N[C@H](CO)C(=O)N4)NC(=O)[C@@H]1CCCN1C(=O)[C@H]([C@@H](C)CC)NC(=O)CNC(=O)[C@H](CC(N)=O)NC(=O)[C@H](CCCNC(=N)N)NC(=O)[C@H](Cc1ccc(O)cc1)NC3=O)C(=O)N[C@@H](C(C)C)C(=O)N[C@@H](Cc1ccc(O)cc1)C(=O)N[C@@H]([C@@H](C)CC)C(=O)N1CCC[C@H]1C(=O)N2	500	500	400	11100
CC[C@H](C)[C@@H]1NC(=O)[C@H](C)NC(=O)[C@H](CO)NC(=O)[C@H](CO)NC(=O)[C@H]([C@@H](C)CC)NC(=O)[C@@H]2CSSC[C@@H]3NC(=O)[C@H](C(C)C)NC(=O)[C@H](CCCCN)NC(=O)[C@H](CO)NC(=O)[C@H](CCCCN)NC(=O)[C@@H]4CSSC[C@H](NC(=O)[C@H](CO)NC(=O)[C@H](CCC(=O)O)NC(=O)CNC(=O)[C@H](CSSC[C@H](NC(=O)CNC1=O)C(=O)N[C@@H](CO)C(=O)N4)NC(=O)[C@@H]1CCCN1C(=O)[C@H]([C@@H](C)CC)NC(=O)CNC(=O)[C@H](CC(N)=O)NC(=O)[C@H](CCCNC(=N)N)NC(=O)[C@H](Cc1ccc(O)cc1)NC3=O)C(=O)N[C@@H](C(C)C)C(=O)N[C@@H](Cc1c[nH]c3ccccc13)C(=O)N[C@@H]([C@@H](C)CC)C(=O)N1CCC[C@H]1C(=O)N2 (cyclo(AIGCSCKSKVCYRNGIPCGESCVWIPCISS); disulfide 4-18, 6-22, 11-27)	800	700	600	–
CC(C)C[C@@H]1NC(=O)CNC(=O)[C@H](CC(N)=O)NC(=O)[C@H](CCCNC(=N)N)NC(=O)[C@H]([C@@H](C)O)NC(=O)[C@@H]2CSSC[C@@H]3NC(=O)[C@H]([C@@H](C)O)NC(=O)CNC(=O)CNC(=O)[C@H](C(C)C)NC(=O)[C@@H]4CSSC[C@H](NC(=O)[C@H](CO)NC(=O)[C@H](CSSC[C@H](NC(=O)[C@H](C(C)C)NC(=O)[C@@H]5CCCN5C1=O)C(=O)NCC(=O)N[C@@H](CCC(=O)O)C(=O)N[C@@H]([C@@H](C)O)C(=O)N4)NC(=O)CNC(=O)[C@@H]1CCCN1C(=O)[C@H]([C@@H](C)O)NC(=O)[C@H](CC(N)=O)NC3=O)C(=O)N[C@@H](CO)C(=O)N[C@@H](Cc1c[nH]c3ccccc13)C(=O)N1CCC[C@H]1C(=O)N[C@@H](C(C)C)C(=O)N2	3600	5200	4000	≥ 50000
CC[C@H](C)[C@@H]1NC(=O)[C@H](C)NC(=O)[C@H](C)NC(=O)[C@H](CO)NC(=O)[C@H]([C@@H](C)CC)NC(=O)[C@@H]2CSSC[C@@H]3NC(=O)[C@H](C(C)C)NC(=O)[C@H](CCCCN)NC(=O)[C@H](CO)NC(=O)[C@H](CCCCN)NC(=O)[C@@H]4CSSC[C@H](NC(=O)[C@H](CO)NC(=O)[C@H](CCC(=O)O)NC(=O)CNC(=O)[C@H](CSSC[C@H](NC(=O)CNC1=O)C(=O)N[C@@H](CO)C(=O)N4)NC(=O)[C@@H]1CCCN1C(=O)[C@H]([C@@H](C)CC)NC(=O)CNC(=O)[C@H](CC(N)=O)NC(=O)[C@H](CCCNC(=N)N)NC(=O)[C@H](Cc1ccc(O)cc1)NC3=O)C(=O)N[C@@H](C(C)C)C(=O)N[C@@H](Cc1c[nH]c3ccccc13)C(=O)N[C@@H]([C@@H](C)CC)C(=O)N1CCC[C@H]1C(=O)N2 [CYCLOVIOLACIN O13] (cyclo(AAIGCSCKSKVCYRNGIPCGESCVWIPCIS); disulfide 5-19, 7-23, 12-28)	600	700	500	14900
